Results reported in patent US10285963B2, “Combination of metabolic bio-energetic and nutra-epigentic regulators, nutraceutical compounds in conventional and nanotechnologies combination to revert and prevent the chronic damage accelerated cellular senescence produced by diabetes and other degenerative chronic complex diseases” (priority 2015, dated 2019).

How the values were obtained:
[1] = system: Artemia salina nauplii; assay: Artemia salina nauplii toxicity assay; conditions: for toxicity expressed as percent mortality of A. salina nauplii: any of the tested concentrations (62.5-1000 ppm)
Source text: Artemia salina is a crustacean sensitive to a wide range of compounds with biological activity and very different chemical structures. Michael et al. (Michael A. S. et al in Science, 1956, 123: 464) and Vanhaecke et al. (Vanhaecke et al in Ecotoxicol Environ Saf 1981, 5:382) proposed its use for toxicity testing. It is a test that allows conducting practically and economically toxicity studies of different nature substances. […] This model is accepted by the FDA (Food Drug Administration) and EPA (Environmental Protection Agency in 2002), as a test for evaluating the toxicity and ecotoxicity of pharmaceutical and/or food products.
In an Artemia salina hatcher, 0.5 g cysts of Artemia salina were hatched in artificial seawater at 37 g/L at a temperature of 27° C. with constant aeration for 24 h. In every 5 wells out of a 96-well plate, 0.1 mL of artificial seawater (37 g/L) was applied with a single-channel pipette with ten nauplii, separated from the hatcher and counted one by one to achieve an exact separation of 10 nauplii. […] Using a multichannel micropipette, 0.1 mL of the solutions prepared in the plate were added, achieving a final concentration of 62.5, 125, 250, 500 and 1000 ppm per five wells of nauplii. For blank samples, 10 untreated nauplii were placed in a 0.2 mL volume of artificial seawater (37 g/L). The microplate was incubated at 25° C. for 24 h. After incubation period, A. salina nauplii alive and dead were counted with a stereoscopic microscope and % mortality was determined. Toxicity was expressed as percent mortality of A. salina nauplii: 0-10% non-toxic, moderately toxic 11-50%, 51-90% highly toxic and 100% extremely toxic, considering the Gualdron et al, scale. (Gualdron R. et al in Chem Rev. Col. Farm, 1997, 26: 15 to 19). […] Data were analyzed with the Statistical Package Graph Pad Prism version 6, by analysis of variance (ANOVA) test and Tukey multiple comparisons (p<0.05).

[2] = system: human peripheral blood mononuclear cells (lymphocytes) DNA; conditions: 0.1 mM, positive control, 24 h
Protocol: By using culture medium cell concentration was adjusted to 1×10^6 cells/mL. Cells obtained were seeded in Eppendorf vials at a density of 3×10^4 cells/mL and incubated at 37° C. and 5% CO2 for 24 hours to stabilize. […] Cells were incubated for 24 h to be later precipitated by centrifugation at 1200 rpm for 5 min and treated with 0.1 mL trypsin (0.25%) for 3 min at 37° C. and 5% CO2. Cells were resuspended in 1 mL of RPMI 1640 medium and centrifuged again at 1200 rpm for 5 min, the supernatant was discarded and the cells were incubated with 1 mL of lysis solution (NaCl 2.5 M, Na2EDTA 100 mM, Tris HCl 10 mM, and 1% Triton) at 4° C. for 24 h. After 24 h, vials were centrifuged at 1200 rpm at 4° C. […] The generated images were acquired with a high resolution digital camera (FIG. 4, above) and analyzed with ImageQuant TL v8.1 software. The area of the comet head representing intact DNA was quantified by densitometric analysis and plotted as percentage versus the negative control (culture medium) (FIG. 4, in the middle). The tail of the comet representing the damaged DNA was measured in millimeters and represented as the percentage of the positive control (H2O2). Data were expressed as mean±mean standard deviation (FIG. 4, below). Data obtained were analyzed by analysis of variance (ANOVA) using in case of any difference a post-hoc Tukey test using GraphPad Prism v6.0 software, at p<0.05.

[3] = system: rabbits with alloxan-induced diabetes; assay: Alloxan-induced diabetes in rabbits; format: in vivo
Protocol: (§1) In all tests carried out on laboratory animals the treatment was orally administered in a weight-dependent measure, through orogastric cannula, after conventional feed consumption for rodents and lagomorphs (Commission of the European Communities in Off. J. Eur. Comm (L 383 A), 1992, 35: 110), respectively.
(§2) Body weight was determined and recorded at the beginning and end of the experiment. Also in case of rabbits, clinical laboratory tests were performed before and after each test: blood biometry, blood chemistry and activity of transaminase enzymes: aspartate aminotransferase (AST), alanine aminotransferase (TGP) and transpeptidase gamma glutamyl transaminase (GGT). In rats, these parameters were determined only at the end of testing to prevent blood loss. Finally, we proceeded with the euthanasia step to animals applying a series of anesthetics and potassium chloride (KCl). Subsequently, an organ and fundamental tissue macroscopic examination and necropsy was conducted, primarily including heart, kidney, spleen, pancreas, lung, liver, ovaries and testicles, according to each case. Samples taken were sent to carry out a histopathological study.
(§3) In addition, the test in rats and rabbits with alloxan-induced diabetes was performed. […] Insulin glargine was administered subcutaneously at a dose of 0.7 U/kg in a single morning administration every 24 h.

[4] = system: rats with alloxan-induced diabetes; assay: Alloxan-induced diabetes in rats; format: in vivo
Protocol: as §1, §2, §3

[5] = system: human embryonic kidney (HEK-293) cell line; assay: MTT microdilution assay, HEK-293; format: cell-based
Source text: (§4) MTT method, based on reduction of 3-(4,5-dimethylthiazol-2-yl)-2,5-diphenyltetrazolium bromide, is an assay that reflects the metabolic function of cells. MTT is a yellow dye reduced to formazan (blue dye) by mitochondrial dehydrogenases, which are part of the respiratory chain of viable cells (Hwa et al., 2015). It is used in a quantitative colorimetric microdilution method applied for determination of survival and proliferative capacity of mammalian cells (Mosmann T. in J. Immunol Methods, 1983, 65 (1-2): 55). […]
(§5) Dulbecco's modified Eagle Minimum Essential culture Medium/F12 (DMEM/F12) was used, supplemented with 10% fetal bovine serum (FBS) and 1 mL of a mixture of antibiotics (200,000 IU of penicillin and 0.5 g streptomycin). […] Subsequently MTT solution was removed, retaining the formed formazan salts, then they added 0.1 mL of isopropyl alcohol and the absorbance at 540 nm was read in a Synergy HT microplate reader with GEN 5 embedded software. In the calculation of cell viability percentage detected absorbance in wells with cells proliferated in untreated culture medium were considered 100% of living cells. […] Results of data analysis are expressed as the average±standard deviation (FIG. 5).

[6] = system: Vero cell line (African green monkey kidney cells); assay: MTT microdilution assay, Vero; format: cell-based
Source text: as §4, §5

[7] = system: peripheral human lymphocytes; assay: Lymphocyte proliferation and viability, trypan blue count; format: cell-based; conditions: positive control 1.25 mg/mL, 48 h
Source text: For the assay, a biological in vitro system using mononuclear cells culture from peripheral blood mononuclear cells—peripheral human lymphocytes was used. The system was selected because they form from 25 to 35% of leukocytes and they are the main immune response promoting cells since they recognize foreign antigens and activate cellular immune response mediators, causing proliferation or suppression phenomena before endogenous or exogenous stimuli. These cultures are widely used in research to evaluate the effects of various compounds (Marti-Centelles R. et al in J. Med Chem Eur, 2015, 103: 488). […] As a positive control the test with concanavalin A (Con A) was performed, which is a globular plant-origin protein that induces mitosis in lymphocytes causing clonal proliferation (Ganem and Martin Gonzalez Baez F A O. in Universo Diagnóstico, 2000, 1 (1):1). Assay with RPMI-1640 (medium without treatment) was performed as blank. […]
Optical light microscope with 40× objective was used. Cells were counted with Neubauer chamber using 0.05 mL suspension of each resuspended samples in 0.4 mL of PBS 1× and 0.05 mL of trypan blue. […] The results were analyzed by the variance analysis test (ANOVA) with SPSS version 16 and then Dunnet's test was applied to discern whether a difference between control and experimental treatments was present, taking values of p<0.05 as significant.

[8] = positive control, 1.95-2000 ppm

For `NCC(=O)O` [Glycine, glycine], the “toxicity expressed as percent mortality of A. salina nauplii” value ([1]; 24 h) was “toxicity free”.

In the case of “3, 5, 4-trihydroxy-trans-stilbene [resveratrol]”, the “mortality of A. salina nauplii” value ([1]; 62.6 ppm solution, 24 h) is reported as 38%, the “toxicity class (percent mortality scale)” value ([1]; 62.6 ppm solution, 24 h) is reported as “moderate toxicity” and the “LC50 (lethal concentration to 50% nauplii)” value ([1]; 24 h) is reported as 89.48 ppm. For the same compound, the “toxicity class (percent mortality scale)” value ([1]; from the LC50 concentration (89.48 ppm)) was “highly toxic (51-90% highly toxic)”.

`OO` [hydrogen peroxide] was tested, and the “DNA damage (genotoxicity)” value [2] was “much more rapid dsDNA diffusion”.

With insulin the kidney histology ([3]; diabetic female rabbit treated only with insulin) was “early diabetic nephropathy”, the pancreas histology ([3]; diabetic female rabbit treated only with the named treatment) was “complete destruction of the organ” and the “kidney histology, tubular component” value ([3]; diabetic male rabbit treated only with insulin) was “changes by coagulative necrosis and nuclei pyknosis”. The “macroscopic pancreatic alterations at autopsy” value ([3]; diabetic rabbits, single treatment only) was “most severe pancreatic alterations”, the capillary glucose ([4]; diabetic rats treated only with insulin, up to 19 days) was “increase in the tendency for capillary glucose” and the weight change ([4]; diabetic rats, pure insulin, compared to other groups) was “tendency of weight loss decrease is much more visible”. For the same compound, the “macroscopic pancreatic alterations at autopsy” value ([4]; diabetic rats, single treatment only) was “most severe pancreatic alterations”.

In the case of `N=C(N)NCCC[C@H](N)C(=O)O` [arginine], the “toxicity expressed as percent mortality of A. salina nauplii” value ([1]; 24 h) is reported as “toxicity free”.

In the case of Triton X-100, the LC50 ([5]; HEK-293, MTT, 24 h) is reported as 764.10±21.93 ppm, the effect on absorbance/viability [5, 8] is reported as “dose-depending effect” and the LC50 ([6]; Vero, MTT, 24 h) is reported as 42.80±1.60 ppm. For the same compound, the effect on absorbance/viability [6, 8] was “dose-depending effect”.

For concanavalin A, the “increase in the number of cells” value [7] was 65% and the number of cells [7] was 9,101,667 cells/mL.
